Experimental data taken from patent publication US11136551B2, “In vitro method of differentiating a human pluripotent stem cell population into a cardiomyocyte cell population” (Ncardia B.V., priority 2015, dated 2021).

Assays:
dishevelled 2 (Dvl2) = details: HEK293 cells; cited from earlier work
[1] = test system: NKX2-5-GFP reporter stem cells; assay: Percentage of cardiomyocytes by flow cytometry of GFP positive cells at day 14; type: cell-based, human; details: FIG. 3, reduction of IWP-L6 from 2 microMolar to 0.25 microMolar
Protocol: For differentiation, cells were seeded in 12-well plates at density of 60,000 cells per well or a split ratio that was empirically determined to give 30-80% confluence after 4 days. Culture media was […] days with a differentiation media as disclosed herein, for example containing 46.5% IMDM (Gibco 21056), 0.25% Bovostar BSA, 46.5% Ham's F12 with Glutamax, 2 mM Glutamax, 450 nM […], 0.05 mg/ml ascorbic acid, 0.5% 5000 U/ml Pen/Strep (Gibco 12070), 0.01% 1000* Trace elements mix B (Cellgro 99-176-CL), 0.1% 1000* Trace elements mix C (Cellgro 99-176-CL). In several experiments 0.1% ITS-x was used from day 4-14, i.e. during differentiation of the cells. Cell numbers were determined with a Fuchs-Rosenthal counting chamber. […] Cells were counted and number of cells was determined using following equations: cells/ml=average count per square×dilution factor×5000 total cells=cells/ml×total original volume of cell suspension from which sample was taken. […] GFP fluorescence reports the expression of the endogenous NKX2.5 gene and enables identification/quantification of hPSC-derived cardiomyocytes during differentiation. Method of Measuring TNNT2 (Using FACS) The percentage TNNT2 expressing cells was measured by flow cytometric analysis. […] Percentage of cardiomyocytes was determined at day 14 of differentiation using flow cytometry for detection/quantification of GFP positive cells. […]

hIPSC lines = assay: Percentage of cardiomyocytes by flow cytometry for Troponin-T (TNNT-2) at day 14; type: cell-based, human; details: for differentiation efficiency (TNNT-2 positive cells): FIG. 5, day 14
Protocol: For differentiation, cells were seeded in 12-well plates at density of 60,000 cells per well or a split ratio that was empirically determined to give 30-80% confluence after 4 days. Culture media was […] days with a differentiation media as disclosed herein, for example containing 46.5% IMDM (Gibco 21056), 0.25% Bovostar BSA, 46.5% Ham's F12 with Glutamax, 2 mM Glutamax, 450 nM […], 0.05 mg/ml ascorbic acid, 0.5% 5000 U/ml Pen/Strep (Gibco 12070), 0.01% 1000* Trace elements mix B (Cellgro 99-176-CL), 0.1% 1000* Trace elements mix C (Cellgro 99-176-CL). In several experiments 0.1% ITS-x was used from day 4-14, i.e. during differentiation of the cells. Cell numbers were determined with a Fuchs-Rosenthal counting chamber. Briefly, cells grown in monolayer cultures were detach from surface of plate using TrypLETM Select Enzyme (Life Technologies). A uniform cell suspension was transferred to the edge of hemocytometer counting chamber. Cells were counted and number of cells was determined using following equations: cells/ml=average count per square×dilution factor×5000 total cells=cells/ml×total original volume of cell suspension from which sample was taken. Method of Measuring NKX2.5 NKX-GFP reporter hESC and iPSC cells have been described previously. These cells express the fluorescent protein GFP under the control of the endogenous NKX2-5 promoter. GFP+ve cells mark cardiomyocytes (Elliott D A et al. Nat. Methods, 8 (2011), pp. 1037-1040; van den Berg C W et al., Development. 2015 Jul. 24. pii: dev.123810. [Epub ahead of print]). NKX 2.5 is transcription factor essential for heart development and it is expressed in the heart throughout life. GFP fluorescence reports the expression of the endogenous NKX2.5 gene and enables identification/quantification of hPSC-derived cardiomyocytes during differentiation. Method of Measuring TNNT2 (Using FACS) The percentage TNNT2 expressing cells was measured by flow cytometric analysis. Briefly, cells were dissociated with TrypLETM Select Enzyme (Life Technologies), washed with PBS, fixed and permeabilized with FIX & PERM® Cell Fixation and Permeabilization Kit (Life Technologies). Samples were incubated with Troponin T (TNNT2), Cardiac Isoform Ab-1, Mouse Monoclonal Antibody (ThermoFisher, MS-295-P1; at 1:1000 dilution) followed by incubation with secondary antibody Donkey Anti-mouse APC (Jackson Immuno, 715-136-151; at 1:500 dilution) both diluted in Fix&Perm Medium B. Samples were analyzed on a NovocyteTM Flow Cytometer (ACEA Bioscicences) or a MACSQuant VYB instrument (Miltenyi Biotech). […] Two […] cultured on feeders in KOSR (InvitroGen)/FGF supplemented DMEM-F12. To start differentiation, cells were dissociated using Accutase and resuspended in mTesR at a concentration of 60,000/ml cells, the cell suspension was seeded onto Matrigel coated 12-well plates. Cells were maintained for 4 days before onset of differentiation. Cells were treated for 2 days with 5 microMolar CHIR99021, followed by 2 days culture in the presence of specific Wnt inhibiting small molecules, next the cells were cultured for 10 days in differentiation medium. Percentage of cardiomyocytes (FIG. 4A; % TNNT2 positive cells at day 14) was determined at day 14 of differentiation using flow cytometry for the pan-cardiac marker Troponin-T (TNNT-2). […] Presence and absence or concentration have no significant effect on the total number of cells (FIG. 4B; cell count at day 14, in million cells/well). […]

[2] = test system: human pluripotent stem cells; assay: In vitro differentiation of human pluripotent stem cells into cardiomyocytes: yield and progress of differentiation; type: cell-based; details: in combination with XAV-939, relative to IWP-L6
Protocol: IGF may be added during any stage of the method of differentiating the human pluripotent stem cell population. IGF may, for example, be provided to the human pluripotent stem cell population immediately after plating or passaging the cells (i.e. after transferring of a small number of cells into a new vessel for cultivating) and before, for example, step a) is performed (the contacting of the cells with at least the Wnt-signaling agonist), or before step b) is performed (the contacting of the cells with XAV-939 and IWP-L6 and/or C-59). […]
For differentiation, cells were seeded in 12-well plates at density of 60,000 cells per well or a split ratio that was empirically determined to give 30-80% confluence after 4 days. […]
Cell numbers were determined with a Fuchs-Rosenthal counting chamber. […] Cells were counted and number of cells was determined using following equations: cells/ml=average count per square×dilution factor×5000 total cells=cells/ml×total original volume of cell suspension from which sample was taken. […] GFP fluorescence reports the expression of the endogenous NKX2.5 gene and enables identification/quantification of hPSC-derived cardiomyocytes during differentiation. Method of Measuring TNNT2 (Using FACS) The percentage TNNT2 expressing cells was measured by flow cytometric analysis. […]

O=C(CSc1nc2c(c(=O)n1-c1ccccc1)SCC2)Nc1ccc(-c2ccccc2)cn1 [IWP-L6, 2-[(4-oxo-3-phenyl-6,7-dihydrothieno[3,2-d]pyrimidin-2-yl)sulfanyl]-N-(5-phenylpyridin-2-yl)acetamide]
phosphorylation of dishevelled 2 (Dvl2) (dishevelled 2 (Dvl2)): suppress phosphorylation of dishevelled 2 (Dvl2)
differentiation efficiency (GFP positive cells) [1]: increases the differentiation efficiency even further
differentiation (% TNNT2 positive cells at day 14) (hIPSC lines; FIG. 4A, addition of IWP-L6 at 0.25 microMolar to XAV939): further improves the differentiation
differentiation efficiency (TNNT-2 positive cells) (hIPSC lines; alone): about 70%

Cc1cc(-c2ccc(CC(=O)Nc3ccc(-c4cccnc4)cc3)cc2)ccn1 [C59, 2-[4-(2-methylpyridin-4-yl)phenyl]-N-(4-pyridin-3-ylphenyl)acetamide]
toxicity to the human pluripotent stem cells [2]: more toxic
yield of cell obtained with the method ([2]; data not shown): reduced yield

O=c1[nH]c(-c2ccc(C(F)(F)F)cc2)nc2c1CSCC2 [XAV-939, 3,5,7,8-Tetrahydro-2-[4-(trifluoromethyl)phenyl]-4H-thiopyrano[4,3-d]pyrimidin-4-one]
differentiation efficiency (% TNNT2 positive cells at day 14) (hIPSC lines; FIG. 4A, further increase of concentration above 5 microMolar): reduces differentiation efficiency
optimal concentration (% TNNT2 positive cells at day 14) (hIPSC lines; FIG. 4A, titration of XAV-939, two hIPSC lines): 5 microMolar
differentiation efficiency (TNNT-2 positive cells) (hIPSC lines; addition of XAV939 to IWP-L6): further increased
